Values quoted from earlier work, collected in US20200367500A1, “MICROCAPSULES WITH BIOCIDES FOR THEIR INCORPORATION INTO REPELLENT AND/OR INSECTICIDE COATINGS” (priority 2019, published 2020).
Entries after “also recorded” stand apart in the source; their conditions may differ. Like-named read-outs stand apart in the source and are kept apart here.

Details: for Decomposition time (Mean life): aqueous medium; for Stability in aqueous medium, in words: pH as stated in the value

Structure (SMILES)	Stability in aqueous medium, in words	Decomposition time (Mean life) (pH 9)	also measured
CCOP(=S)(OCC)Oc1nc(Cl)c(Cl)cc1Cl [Chlorpyrifos]	Stable in neutral and slightly		Decomposition time (Mean life) (pH 10): 7 days
CC1(C)C(C=C(Cl)Cl)C1C(=O)OC(C#N)c1cccc(Oc2ccccc2)c1 (centres unmarked) [Cypermethrin]		7 days	
C=CCC1=C(C)C(OC(=O)C2C(C=C(C)C)C2(C)C)CC1=O [D-allethrin]	Stable at pH 5 after 31 days	(4.3 days)	Decomposition time (Mean life) (pH 7): 500 days
CC1(C)[C@H](C(=O)O[C@H](C#N)c2cccc(Oc3ccccc3)c2)[C@@H]1C=C(Br)Br [Deltamethrin]	more stable in medium acid solutions		Decomposition time (Mean life) (pH 7): 0.33 days
CCOP(=S)(OCC)Oc1cc(C)nc(C(C)C)n1 [Diazinon]		136 days	Decomposition time (Mean life) (pH 5): 31 days; Decomposition time (Mean life) (pH 7.5): 185 days
O=C(NC(=O)c1c(F)cccc1F)Nc1ccc(Cl)cc1 [Diflubenzuron]	Stable in a pH range from 5 to 7; also recorded: Hydrolyzed at pH 9		
CCOC(=O)CC(SP(=S)(OC)OC)C(=O)OCC (centres unmarked) [Malathion]	Quickly hydrolyzed at pH over 7. The optimal pH		
CC1(C)C(C=C(Cl)Cl)C1C(=O)OCc1cccc(Oc2ccccc2)c1 (centres unmarked) [Permethrin]	Stable at pH between 5 and 6.		
CCN(CC)c1nc(C)cc(OP(=S)(OC)OC)n1 [Pirimiphos-methyl]			Decomposition time (Mean life) (pH 5): 7 days; Decomposition time (Mean life) (pH 8): 5 days
CC(COc1ccc(Oc2ccccc2)cc1)Oc1ccccn1 (centres unmarked) [Pyriproxifen]	Stable in pH between 4 and 9.		
